Laboratory results published in patent US9925154B2 (Seattle Children's Hospital, priority 2011, dated 2018).
Where a name gives a salt, the structure may show the parent alone. Read-outs that look alike come from different tables or passages of the source.

Columns and labels:
[1] = test system: unilateral ureteral obstruction (UUO) kidneys; test: IP cysteamine HCL dose trial in UUO mice; type: in vivo
Protocol: Unilateral ureteral obstruction (UUO) was performed on ten mice.

[2] = Plasma cysteamine levels by mass spectrometry; type: in vivo, mice; conditions: for plasma levels of cysteamine at the time of sacrifice: day 14 after UUO
Protocol: Plasma cysteamine levels were measured by mass spectrometry by the reference laboratory at UC San Diego that also runs most of the human samples for the North American patients with cystinosis.
Plasma levels were taken every hour during the evening (for 12 hours) and every four hours during the day (n=4/group).

[3] = test system: unilateral ureteral obstruction (UUO) kidneys; conditions: for severity of fibrosis as measured by total collagen content: day 14 after UUO
Protocol: Mice were sacrificed at day 14 after UUO and total renal collagen levels (μg hydroxyproline/mg) were measured. Total collagen in the tissue was calculated on the assumption that collagen contains 12.7% hydroxyproline by weight.

UUO kidneys = test: Total kidney collagen (hydroxyproline) in UUO kidneys; type: in vivo, mice; conditions: for reduction of total kidney collagen content: day 14 after UUO
Protocol: (§1) Cysteamine bitartrate, the bitartrate salt of cysteamine is known commercially as Cystagon®. […] Both doses were well-tolerated and measured serum levels of cysteamine were appropriate.
Unilateral ureteral obstruction (UUO) was performed on 8 week-old wild-type male mice on a C57BL6 background. […] Groups of mice (n=8-10 mice per group at each time-point) were studied 3, 7, 14, and 21 days after the onset of chronic injury induced by UUO.
Total collagen was measured as hydroxyproline concentration in hydrolysates extracted from frozen normal (unobstructed) and UUO kidney samples. […] Collagen reduction was confirmed by sirius red staining

E-cadherin = E-cadherin immunoblotting in UUO mice; type: in vivo; conditions: treated UUO mice
From the text: as §1

fibronectin = test: ECM gene mRNA by real-time qPCR in UUO kidneys: fibronectin; type: in vivo, mice; conditions: day 7 after UUO
Protocol: (§2) Unilateral ureteral obstruction (UUO) was performed on 8 week-old wild-type male mice on a C57BL6 background. […] The kidneys were harvested at 3, 7, and 14 days after UUO.
(§3) Extracellular matrix (ECM) gene mRNA levels were measured by semiquantitative real-time PCR (qPCR) in both doses at 3, 7 and 14 days after UUO. Real-time qPCR) was performed with specific primers for collagen 1A1, collagen 3A1, fibronectin, and other profibrotic and proinflammatory genes using standard protocols. Semi-quantitative real-time qPCR data was analyzed with REST software using both GAPDH and 18S as reference genes. Reactions were run in triplicate, and mean threshold crossing cycle (Ct) values were compared. ‡P<0.05; †P<0.01.

procollagen I = test: ECM gene mRNA by real-time qPCR in UUO kidneys: procollagen I; type: in vivo, mice; conditions: 600 mg/kg
Protocol: as §2, §3

procollagen III = test: ECM gene mRNA by real-time qPCR in UUO kidneys: procollagen III; type: in vivo, mice; conditions: day 7 after UUO
Protocol: as §2, §3

[4] = test system: α-SMA-positive myofibroblasts; test: α-SMA immunoperoxidase staining of UUO kidneys; type: in vivo, mice
Protocol: Myofibroblast activation and accumulation was examined after UUO by measuring the expression of α-smooth muscle actin (α-SMA), a marker of myofibroblast activation. Interstitial myofibroblasts are the primary matrix-producing cell in response to kidney injury. […] Cell proliferation was measured by counting BrdU positive cells using a monoclonal anti-BrdU antibody. Myofibroblast recruitment was quantified after immunoperoxidase staining using peroxidase-conjugated murine anti-human α-smooth muscle actin (α-SMA) 1A4 monoclonal antibody (Sigma).

[5] = test system: F4/80-positive interstitial macrophages; test: F4/80 confocal staining of UUO kidneys; type: in vivo, mice
Protocol: UUO was performed on 8 week-old wild-type male mice on a C57BL6 background. […] The kidneys (obstructed and contralateral) were harvested at day land day 14 after UUO. Macrophage accumulation was analyzed by confocal staining using F4/80 rat anti-mouse macrophage monoclonal antibody (Serotec Ltd., Oxford, UK).

TGF-β = test: Real-time PCR of profibrotic cytokines in UUO kidneys: TGF-β; type: in vivo; conditions: vs control mice; for down-regulation of TGF-β mRNA levels: day 14 after UUO
Protocol: (§4) The expression patterns of pro-inflammatory and pro-fibrotic cytokines were investigated at day 7 and day 14 in total kidney homogenate by semi-quantitative real time qPCR.
(§5) UUO was performed on 8 week-old wild-type male mice on a C57BL6 background. […] The kidneys (obstructed and contralateral) were harvested at day land day 14 after UUO.
(§6) Semi-quantitative real-time PCR was performed with specific primers to TGF-β and TGF-β receptor 1 genes using iCycler (Bio-Rad) with standard protocol. […] Semi-quantitative real-time PCR data was analyzed with REST software using both GAPDH and 18S as reference genes. Each sample was performed in triplicate. (‡P<0.05, †P<0.01).

TGF-β receptor 1 = test: Real-time PCR of profibrotic cytokines in UUO kidneys: TGF-β receptor; type: in vivo; conditions: vs control mice; for down-regulation of TGF-β receptor mRNA levels: day 14 after UUO
Protocol: as §4, §5, §6

[6] = test system: IL-1β, TNF-α, IL-6, Gal-3, and Endo180; test: Real-time qPCR of pro-inflammatory and pro-fibrotic cytokines in UUO kidneys; type: in vivo; conditions: day 14 after UUO, vs control mice
Protocol: as §4, §5

[7] = test system: total kidney thiol content; test: Total kidney thiol content in UUO mice; type: in vivo
Protocol: In order to investigate the importance of total redox status during fibrotic injury, total kidney thiol content was measured as an indicator of antioxidant status.
UUO was performed on 8 week-old wild-type male mice on a C57BL6 background (n=5/group). […] The kidneys (obstructed and contralateral) were harvested at days 7, 14 and 21 after UUO. Tissue from contralateral and UUO kidneys was processed in antioxidant buffer and analyzed for total thiol content fluorometrically and normalized to protein content using a Measure-iT™ Thiol Assay Kit (Invitrogen).

Nox2, Nox4, and SOD1 = test: Real-time qPCR of oxidant and anti-oxidant genes in UUO mice; type: in vivo; conditions: day 7 and day 14, qPCR (data not shown)
From the text: In addition, there was no difference between cysteamine-treated and control mice in the modulation of the expression of the oxidant and anti-oxidant genes Nox2, Nox4, and SOD1 as determined by semi-quantitative real time qPCR at day 7 and day 14 (data not shown).

[8] = test system: Transglutaminase 2 (TGase2); test: TGase2 protein expression in UUO kidneys; type: in vivo, mice; conditions: 400 mg/kg or 600 mg/kg
From the text: Transglutaminases (TGases) are a family of enzymes that catalyze the transamidation reaction between the γ-carboxyamide of a peptide-bound glutamine residue and the ϵ-amino group of a peptide-bound lysine residue or the primary amine group of a polyamine via forming a thioester acylenzyme intermediate at the active site cysteine. Thus, TGase activity produces cross-linked proteins or amine conjugates. One type of TGase, TGase2, acts to cross link ECM proteins, particularly Collagen III. Cross linking renders proteins resistant to degradation, which is thought to result in accelerated matrix deposition.

[9] = test system: intracellular cystine (circulating white blood cells); conditions: cited from earlier work
[10] = delivery to the small intestine; cited from earlier work
TGase = target: T1, TGase (Homo sapiens, UniProt P21980); conditions: in vitro, Jeon et al. 2004; cited from earlier work
T1 sequence (P21980 1-687): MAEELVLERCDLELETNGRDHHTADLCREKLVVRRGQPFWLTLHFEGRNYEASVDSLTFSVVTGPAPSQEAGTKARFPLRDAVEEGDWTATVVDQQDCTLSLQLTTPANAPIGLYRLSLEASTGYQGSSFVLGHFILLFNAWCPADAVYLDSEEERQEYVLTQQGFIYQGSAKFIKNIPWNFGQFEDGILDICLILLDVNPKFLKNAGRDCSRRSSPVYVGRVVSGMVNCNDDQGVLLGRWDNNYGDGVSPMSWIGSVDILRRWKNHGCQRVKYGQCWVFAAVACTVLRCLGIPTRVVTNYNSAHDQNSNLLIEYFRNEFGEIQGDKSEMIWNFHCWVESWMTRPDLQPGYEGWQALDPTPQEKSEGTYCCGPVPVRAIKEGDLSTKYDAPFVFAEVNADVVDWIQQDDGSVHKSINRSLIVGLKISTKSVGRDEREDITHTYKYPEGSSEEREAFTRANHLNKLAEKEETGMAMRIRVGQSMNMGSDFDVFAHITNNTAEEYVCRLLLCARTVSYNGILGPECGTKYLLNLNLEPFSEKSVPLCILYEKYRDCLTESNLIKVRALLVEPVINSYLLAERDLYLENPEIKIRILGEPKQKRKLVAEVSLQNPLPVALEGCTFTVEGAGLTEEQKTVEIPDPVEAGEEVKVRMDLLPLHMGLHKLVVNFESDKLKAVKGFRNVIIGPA

[11] = high doses (600 mg/kg), day 7 after UUO

For `NCCS` [cysteamine HCL], the “total renal collagen levels (hydroxyproline)” value ([1]; 400 mg/kg dose group, daily IP, day 14 after UUO, compared to placebo (PBS)) was “decreased total collagen levels”, the deaths ([1]; IP, high dose levels) was “several mice died” and the adverse signs observed ([1]; mouse, in vivo, ip) was “Possible seizures and somnolence”.
For `NCCS` [cysteamine bitartrate], the Cmax ([2]; read-out: Cmax levels of cysteamine, C57BL/6 mice, 600 mg/kg in drinking water for 3 days) was 15 to 20 µM.
In the case of `NCCS.O=C(O)C(O)C(O)C(=O)O` (centres unmarked) [cysteamine bitartrate], the “severity of fibrosis as measured by total collagen content” value ([3]; 400 mg/kg in drinking water) is reported as “attenuated”, the “severity of fibrosis as measured by total collagen content” value ([3]; 600 mg/kg in drinking water) is reported as “attenuated” and the “deaths or abnormal behavior” value ([3]; 200, 400, 600 mg/kg in drinking water, 14 days, even at high doses) is reported as “No deaths or abnormal behavior was observed”. The tolerability (UUO kidneys; 400 mg/kg/day and 600 mg/kg/day, UUO mice) was “well-tolerated”, the “reduction of total kidney collagen content” value (UUO kidneys; 400 mg/kg/day in drinking water, vs untreated) was 21% and the “reduction of total kidney collagen content” value (UUO kidneys; 600 mg/kg/day in drinking water, vs untreated) was 21%. For the same molecule, the “decrease in collagen levels” value (UUO kidneys; 600 mg/kg/day in drinking water, day 21 after UUO, vs untreated) was 25%, the “collagen reduction by sirius red staining” value (UUO kidneys; UUO kidneys) was “confirmed” and the kidney collagen levels (UUO kidneys; both doses, 400 and 600 mg/kg/day, by day 14, P<0.01) was “statistically significant reductions”. The “total collagen, treated vs control” value (UUO kidneys; day 7 after UUO) was “no difference”, the “increase of E-cadherin levels (marker of tubular damage)” value (E-cadherin) was 1.3 fold and the “reduction in kidney fibronectin mRNA levels” value (fibronectin; 400 mg/kg) was roughly 40%. For the same molecule, the “reduction in fibronectin mRNA levels” value (fibronectin; 600 mg/kg) was roughly 60%, the “reduction in procollagen I mRNA levels” value (procollagen I; day 7 after UUO) was roughly 60% and the “procollagen I mRNA levels lower” value (procollagen I; day 14 after UUO) was 56%. The “reduction in procollagen III mRNA levels” value (procollagen III; 400 mg/kg) was roughly 40%, the “reduction in procollagen III mRNA levels” value (procollagen III; 600 mg/kg) was roughly 60% and the “reduction in α-SMA-positive myofibroblasts” value ([4]; 400 mg/kg, day 14 after UUO) was roughly 30%. For the same molecule, the “reduction in α-SMA-positive myofibroblasts” value ([4]; 600 mg/kg, day 14 after UUO) was roughly 30%, the “reduction in interstitial macrophage infiltration” value ([5]; 600 mg/kg/day, day 14 after UUO) was 34% and the “interstitial macrophage infiltration, treated vs control” value ([5]; day 7 after UUO) was “No difference”. The “down-regulation of TGF-β mRNA levels” value (TGF-β; 400 mg/kg) was 47%, the “down-regulation of TGF-β mRNA levels” value (TGF-β; 600 mg/kg) was 64% and the “up-regulation of TGF-β expression” value (TGF-β; [11]) was “approximately 60%”. For the same molecule, the “down-regulation of TGF-β receptor mRNA levels” value (TGF-β receptor 1; 400 mg/kg) was 47%, the “down-regulation of TGF-β receptor mRNA levels” value (TGF-β receptor 1; 600 mg/kg) was 64% and the “up-regulation of TGF-β receptor expression” value (TGF-β receptor 1; [11]) was “approximately 60%”. For the same molecule, the “expression levels of IL-1β, TNF-α, IL-6, Gal-3, and Endo180” value [6] was “No difference”, the “plasma levels of cysteamine at the time of sacrifice” value ([2]; 400 mg/kg in drinking water) was 0.81±0.091 Ilmole/L and the “plasma levels of cysteamine at the time of sacrifice” value ([2]; 600 mg/kg in drinking water) was 1.04±0.151 Ilmole/L. For the same molecule, the “serum levels of cysteamine, night vs day” value ([2]; C57BL/6 mice, 600 mg/kg in drinking water for 3 days) was “higher serum levels of cysteamine are achieved at night and lower levels during the day”.
In the case of `NCCS` [cysteamine, β-mercaptoethylamine], the “reduction in α-SMA-positive myofibroblasts” value ([4]; 400 mg/kg, day 7 after UUO) is reported as 38%, the “reduction in α-SMA-positive myofibroblasts” value ([4]; 400 mg/kg, day 14 after UUO) is reported as 24% and the “reduction in α-SMA-positive myofibroblasts” value ([4]; 600 mg/kg, day 7 after UUO) is reported as 47%. For the same molecule, the “reduction in α-SMA-positive myofibroblasts” value ([4]; 600 mg/kg, day 14 after UUO) was 33%, the “total kidney thiol content in UUO kidney” value ([7]; 400 mg/kg or 600 mg/kg, day 7 after UUO) was “remained at levels close to that of the contralateral kidney” and the “increase of total kidney thiol content” value ([7]; high dose (600 mg/kg), compared to controls) was 36%. For the same molecule, the “expression of oxidant and anti-oxidant genes Nox2, Nox4, and SOD1, treated vs control” value (Nox2, Nox4, and SOD1) was “no difference”, the “TGase2 protein expression in UUO kidneys” value [8] was “no difference in TGase2 protein expression” and the “lowering of leukocyte cystine levels” value ([9]; children with cystinosis, enteral administration (Dohil et al.)) was “prolonged efficacy in the lowering of leukocyte cystine levels”. For the same molecule, the “progression to kidney failure/transplantation” value ([9]; subjects with cystinosis, taken regularly) was “reduce the rate of progression to kidney failure/transplantation”, the “depletion of intracellular cystine” value ([9]; taken regularly, measured in circulating white blood cells) was “up to 90%” and the Cmax [10] was “increases Cmax”. For the same molecule, the “area under the curve (AUC)” value [10] was “increases area under the curve (AUC)”, the “time to decrease in leukocyte cystine” value [10] was “within an hour” and the TGase inhibition (TGase) was “less potent inhibitor of TGase than both cystamine and primary amines”.
